We go through five compounds from patent US8293731B2, “HIV integrase inhibitors” (Merck Sharp + Dohme Corp., priority 2005, dated 2012).

The subject of this experiment is HIV. In words: Assay for inhibition of HIV replication (spread assay): acute HIV infection of T-lymphoid cells. In kind it is cell-based. As to conditions: Human immunodeficiency virus 1, 'less than about'. As to the method:
Assays for the inhibition of acute HIV infection of T-lymphoid cells were conducted in accordance with Vacca, J. P. et al., Proc. Natl. Acad. Set USA 1994, 91: 4096. […] For example, the compounds of Examples 1 to 64 were tested in this assay and found to have IC95 values of less than about 10 micromolar.
Regarding `C[C@H]1C[C@H](O)CN(C)C(=O)c2c3c(c(O)c(=O)n21)C(=O)N(Cc1ccc(F)c(Cl)c1)CC3` [Example 44, (4S,6S)-11-(3-Chloro-4-fluorobenzyl)-4,9-dihydroxy-2,6-dimethyl-3,4,5,6,12,13-hexahydro-2H[1,4]diazocino[2,1-a]-2,6-naphthyridine-1,8,10(11H)-trione], the IC95 – broadly, the concentration at which the effect reaches the 95% level – is < 10 µM.

Consider `CC1CCCN(CCN2CCCC2)C(=O)c2c3c(c(O)c(=O)n21)C(=O)N(Cc1ccc(F)c(Cl)c1)CC3` (centres unmarked) [Example 34, 11-(3-Chloro-4-fluorobenzyl)-9-hydroxy-2-(2-pyrrolidinyl-1-ylethyl)-6-methyl-3,4,5,6,12,13-hexahydro-2H[1,4]diazocino[2,1-a]-2,6-naphthyridine-1,8,10(11H)-trione], for which the IC95 is < 10 µM. As for `C=C1CCCN(C)C(=O)c2c3c(c(O)c(=O)n21)C(=O)N(Cc1ccc(F)c(Cl)c1)CC3` [Example 50, 11-(3-chloro-4-fluorobenzyl)-9-hydroxy-2-methyl-6-methylene-3,4,5,6,12,13-hexahydro-2H-[1,4]diazocino[2,1-a]2,6-naphthyridine-1,8,10(11H)trione], the figure is < 10 µM; as for `O=C1NCCn2c1c1c(c(O)c2=O)C(=O)N(Cc2ccc(F)c(Cl)c2)CC1` [Example 5, 9-(3-Chloro-4-fluorobenzyl)-7-hydroxy-3,4,10,11-tetrahydro-2H-pyrazino[2,1-a]-2,6-naphthyridine-1,6,8(9H)-trione], < 10 µM.

On to `CN1CCCCn2c(c3c(c(O)c2=O)C(=O)N(Cc2ccc(F)c(Cl)c2)CC3)C1=O` [Example 1, 11-(3-Chloro-4-fluorobenzyl)-9-hydroxy-2-methyl-3,4,5,6,12,13-hexahydro-2H[1,4]diazocino[2,1-a]-2,6-naphthyridine-1,8,10(11H)-trione], for which the IC95 was < 10 µM.
